The source of these data is patent publication US9765017B2, “Allosteric hemoglobin modifiers with nitric oxide releasing moiety” (VIRGINIA COMMONWEALTH UNIVERSITY, priority 2013, dated 2017).

Data set [1] concerns the target T1, Hb (Homo sapiens, UniProt P68871+P69905).
T1 construct: Normal whole blood used in some of the functional assays was collected from adult donors; from tissue; host or cells: normal human whole blood (red cells) from adult donors
The data set can be described thus: Effect on Hb affinity for oxygen (oxygen equilibrium curve study) using normal whole blood. The class given is cell-based. Conditions: 2 mM compound; for ΔP50: versus DMSO control, whole blood; for N (Hill coefficient) / P50: whole blood (Hct ~29%), 37° C. From the text:
RSR-13 is an allosteric effector of Hb that acts by decreasing Hb affinity for O2, and as a result allows release of more O2 to tissues.^26 In this study, a nitrate ester moiety was incorporated onto RSR-13. It was proposed that, in vivo, the NO will cleave off, resulting in the parent compound and free NO, the former acting as right-shifter of the oxygen equilibrium curve while the latter is released into the vasculature. The following describe the synthesis of three nitrate esters of RSR-13, including DD-1, DD-2 and DD-3 (FIGS. 1-3). Other NO containing RSR-13 derivatives, such as those referenced above may be synthesized according to the same or similar processes. Normal whole blood used in some of the functional assays was collected from adult donors at the Virginia Commonwealth University after informed consent. Hb used for structural studies was purified from discarded normal blood samples. The use of these human samples is in accordance with regulations of the IRB for Protection of Human Subjects.
The effect of DD-1 on Hb affinity for oxygen was studied using whole blood with RSR-13 as a positive control. Solution of DD-1 and RSR-13 was added to 2 mL of whole blood (Hemocrit of ˜29%) to make a final drug concentration of 2 mM. Time-dependent studies were carried out at various time points (ranging from 1 h to 12 h) at 37° C. Briefly, blood-drug mixture samples at various time points were incubated in IL 237 tonometer (Instrumentation Laboratories, Inc., Lexington, Mass.) for about 5-7 min at 37° C. against gas mixture containing O2 concentrations of 0.804%, 2.935% and 8.785% and allowed to equilibrate at O2 tensions of 6, 20, 60 mmHg, respectively. After equilibration, the sample was removed via syringe and aspirated into a ABL 700 series table top automated blood gas analyzer (Radiometer America, Inc., Westlake, Ohio) to determine total hemoglobin (tHb), hematocrit (Hct), pH, pCO2, partial pressure of oxygen (pO2), and the Hb oxygen saturation values (sO2). The measured values of pO2 and sO2 at each oxygen saturation level were then subjected to a non-linear regression analysis using the program Scientist (Micromath, Salt Lake City, Utah) with the following equation:
[formula] This equation was used to calculate P50 and Hill coefficient (N) values. Corresponding control experiments without the test compound (P50control) but containing DMSO were also performed.

Data set [2] is described as follows: Griess assay of nitric oxide release (quantitated as NO2- release). The class given is physicochemical. The settings on record: 2 mM solution in 0.1 M phosphate buffer pH 7.4 mixed with 36 mM L-cysteine, 37° C., anaerobic. The procedure:
A Griess assay was used to measure the NO releasing ability of DD-1 following literature procedures.^29-31 Solution of the test compound (1 mL of a 2 mM solution in 0.1 M phosphate buffer (pH 7.4)) was mixed thoroughly with a freshly prepared solution of L-cysteine (1 mL of a 36 mM solution in 0.1 M phosphate buffer, pH 7.4), and incubated at 37° C. for 1 and 16 h under anaerobic conditions. After exposure to air for 10 min at 25° C., an aliquot of the Griess reagent (1 mL) [freshly prepared by mixing equal volumes of 1.0% sulfanilamide (prepared and stored in aqueous 5% phosphoric acid) and 0.1% N-naphthylethylenediamine dihydrochloride in water] was added to equal volume (1 mL) of each incubation solution after mixing. After 10 min, absorbance was measured at 540 nm using a Hewlett Packard (Agilent) 8453 UV-visible Spectroscopy. NaNO2 solutions of 1-100 μM concentrations were used to prepare a standard nitrite curve of absorbance (nm) versus concentration (μM), and the NO released by DD-1 (quantitated as NO2^−release in μM) was calculated from the standard nitrite curve by extrapolation of the absorbance.

Data set [3] is described as follows: Stability of DMSO stock solution checked by UPLC-MS. The class given is physicochemical. Conditions: 100 μM in DMSO, 3 months at −20° C., at least 6 freeze-thaw cycles. Here is the method:
The stability of nitrate esters was checked by performing UPLC-MS on a previously prepared stock solution of DD-1. A 100 μM stock solution was prepared in DMSO and stored for 3 months at −20° C. during which time it was exposed to at least 6 freeze-thaw cycles.

T1 sequence (P69905 2-142 limits assumed): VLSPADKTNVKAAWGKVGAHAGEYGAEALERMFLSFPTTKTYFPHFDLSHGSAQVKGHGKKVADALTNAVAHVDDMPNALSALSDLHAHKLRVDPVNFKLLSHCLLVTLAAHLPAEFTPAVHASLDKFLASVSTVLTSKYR
T1 sequence (P68871 2-147 limits assumed): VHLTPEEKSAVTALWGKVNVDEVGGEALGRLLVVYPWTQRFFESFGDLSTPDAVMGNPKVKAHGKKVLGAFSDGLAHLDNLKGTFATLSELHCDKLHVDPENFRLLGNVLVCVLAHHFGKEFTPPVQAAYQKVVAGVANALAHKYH

Consider `Cc1cc(C)cc(NC(=O)Cc2ccc(OC(C)(C)C(=O)OCCO[N+](=O)[O-])cc2)c1` [DD-1, 2-(Nitrooxy)ethyl 2-(4-(2-((3,5-dimethylphenyl)amino)-2-oxoethyl)phenoxy)-2-methylpropanoate], for which the ΔP50 in data set [1] (incubation time 1 h) was found to be 3.2 mmHg; in data set [1] (incubation time 2 h), 6.3 mmHg; in data set [1] (incubation time 4 h), 16.3 mmHg; in data set [1] (incubation time 8 h), 25.4 mmHg; in data set [1] (incubation time 12 h) it was 27.8 mmHg. In addition, the “N (Hill coefficient)” value in data set [1] (incubation time 1 h) amounted to 2.3; in data set [1] (incubation time 2 h), 2.1; in data set [1] (incubation time 4 h), 1.9; in data set [1] (incubation time 8 h), 1.7; in data set [1] (incubation time 12 h), 1.7. Also, the P50 is given as 35.7 mmHg in data set [1] (incubation time 1 h); 39.2 mmHg in data set [1] (incubation time 2 h); 49.9 mmHg in data set [1] (incubation time 4 h); 60.3 mmHg in data set [1] (incubation time 8 h); 64.8 mmHg in data set [1] (incubation time 12 h). Further, the “NO2- release after 1 hour” value in data set [2] (1 h incubation) was found to be 9.61 µM. Further, the “NO2- release after 16 hours” value in data set [2] (16 h incubation) was 5.35 µM. Besides, in data set [3], the “Stability of stock solution” value is “stable”.
Regarding `Cc1cc(C)cc(NC(=O)Cc2ccc(OC(C)(C)C(=O)O)cc2)c1` [RSR-13, 2-[4-[2-[(3,5-dimethylphenyl)amino]-2-oxoethyl]phenoxy]-2-methylpropanoic acid, reference compound], the ΔP50 was determined as 15.3 mmHg in data set [1] (incubation time 1 h); 15.0 mmHg in data set [1] (incubation time 2 h); 16.1 mmHg in data set [1] (incubation time 4 h); 16.9 mmHg in data set [1] (incubation time 8 h); 15.6 mmHg in data set [1] (incubation time 12 h). Also, the “N (Hill coefficient)” value in data set [1] (incubation time 1 h) was determined as 1.8; in data set [1] (incubation time 2 h), 1.9; in data set [1] (incubation time 4 h), 1.8; in data set [1] (incubation time 8 h), 1.8; in data set [1] (incubation time 12 h), 1.9. Moreover, the P50 in data set [1] (incubation time 1 h) stood at 47.8 mmHg; in data set [1] (incubation time 2 h), 47.9 mmHg; in data set [1] (incubation time 4 h), 49.7 mmHg; in data set [1] (incubation time 8 h), 51.8 mmHg; in data set [1] (incubation time 12 h), 52.6 mmHg.
